Earlier results, collected in patent publication US20240016859A1, “MICROENCAPSULATED AND CHROMOSOME INTEGRATED COMPOSITIONS FOR L-DOPA MICROBIOME THERAPY” (Iowa State University Research Foundation, Inc., priority 2020, published 2024).

solubility in water: slightly soluble
SMILES: N[C@@H](Cc1ccc(O)c(O)c1)C(=O)O [Levodopa, (−)-L-a-amino-b-(3,4-dihydroxybenzene)propanoic acid]
